Measurements taken from patent publication US20100160442A1, “FORMULATIONS FOR CANCER TREATMENT” (priority 2006, published 2010).
Converted amounts (≈) assume the structure as drawn.

What was measured:
[1] = Equilibrium solubility of 4-iodo-3-nitrobenzamide, overnight at 25° C., measured by HPLC; type: physicochemical; conditions: for solubility: 25 °C, thermodynamic from solid
Description: Excess 4-iodo-3-nitrobenzamide (“BA”) was equilibrated overnight (>16 hr) at 25° C. in purified water, 0.01M HCl (pH2), 0.01M NaOH ([…]), and 0.9% NaCl. Following dilution, the solubility of the drug was measured by HPLC.
Excess 4-iodo-3-nitrobenzamide was equilibrated overnight (>16 hr) at 25° C. in solutions of purified water containing various concentrations of cyclodextrins including hydroxypropyl-β-cyclodextrin (Kleptose® from Roquette) (HPBCD), sulfobutyl ether-β-cyclodextrin (Captisol® from Cyclex) (SBEBCD), and Hyroxypropyl-γ-cyclodextrin (Cavamax W8® from Wacker) (HPGCD). Following dilution, the solubility of the drug was measured by HPLC.
Excess 4-iodo-3-nitrobenzamide was equilibrated overnight (>16 hr) at 25° C. in purified water containing various concentrations of the surfactants: polyethylene sorbitan monooleate (Polysorbate 80), polyoxyethylene sorbitan monolaurate (Polysorbate 20), Cremophor EL (BASF), Cremophor RH40 (BASF), Poloxamer 118, and Solutol HS-15 (BASF). Following dilution, the solubility of the drug was measured by HPLC.
Excess 4-iodo-3-nitrobenzamide was equilibrated overnight (>16 hr) at 25° C. in solutions of purified water containing various co-solvents including ethanol, glycofurol, glycerin formal, benzyl alcohol, N,N, dimethylacetamide (DMA), polyethylene glycol (PEG) 400, and propylene glycol. Following dilution, the solubility of the drug was measured by HPLC.
Excess 4-iodo-3-nitrobenzamide was equilibrated overnight (>16 hr) at 25° C. in solutions in purified water containing mixtures of solubilizers. Following dilution, the solubility of the drug was measured by HPLC.

[2] = Saturated solubility of BA in solvents, 25° C., absorbance at 320 nm; type: physicochemical; conditions: thermodynamic from solid

SMILES: NC(=O)c1ccc(I)c([N+](=O)[O-])c1 [BA, 4-iodo-3-nitrobenzamide]
- solubility ([1]; 100% benzyl alcohol, organic solvent or mixture, Benzyl alcohol 100%, 25° C., read-out: Solubility): 15.5 mg/mL (≈ 53.1 mM)
- solubility ([1]; 100% ethanol, organic solvent or mixture, Ethanol 100%, 25° C., read-out: Solubility): 14.1 mg/mL (≈ 48.1 mM)
- solubility ([1]; 100% glycerin formal, organic solvent or mixture, Glycerin Formal 100%, 25° C., read-out: Solubility): 15.1 mg/mL (≈ 51.8 mM)
- solubility ([1]; 100% glycofurol, organic solvent or mixture, Glycofurol 100%, 25° C., read-out: Solubility): 15 mg/mL (≈ 51.3 mM)
- Enhancement ([1]; Benzyl alcohol 100%): 85.3
- Enhancement ([1]; Cremophor EL 10%): 19.2
- Enhancement ([1]; Cremophor RH40 10%): 18.5
- Enhancement ([1]; DMA 5%): 7.6
- Enhancement ([1]; DMA 100%): 392.6
- Enhancement ([1]; Ethanol 50%): 31.4
- Enhancement ([1]; Ethanol 100%): 77.2
- Enhancement ([1]; Glycerin Formal 50%): 19.0
- Enhancement ([1]; Glycerin Formal 100%): 83.2
- Enhancement ([1]; Glycofurol 50%): 54.1
- Enhancement ([1]; Glycofurol 100%): 82.3
- Enhancement ([1]; HPBCD 10%, vs no solubilizer): 26.7
- Enhancement ([1]; HPBCD 20%, vs no solubilizer): 54.8
- Enhancement ([1]; HPBCD 25%, vs no solubilizer): 63.0
- Enhancement ([1]; HPBCD 40%, vs no solubilizer): 70.2
- Enhancement ([1]; HPGCD 25%, vs no solubilizer): 1.5
- Enhancement ([1]; PEG 400 50%): 42.1
- Enhancement ([1]; Poloxamer 118 10%): 2.4
- Enhancement ([1]; Polysorbate 20 10%): 20.1
- Enhancement ([1]; Polysorbate 20 100%): 59.6
- Enhancement ([1]; Polysorbate 80 10%): 17.2
- Enhancement ([1]; Polysorbate 80 100%): 92.8
- Enhancement ([1]; Propylene glycol 50%): 12.3
- Enhancement ([1]; SBEBCD 25%, vs no solubilizer): 60.6
- Enhancement ([1]; Solubilizer None 0%): 1.0
- Enhancement ([1]; Solutol HS 15 25%): 36.0
- Enhancement ([1]; Solutol HS 15 30%): 41.0
- solubility ([1]; purified water containing mixtures of solubilizers, aqueous with cosolvent or surfactant or cyclodextrin, 5% Polysorbate 80/10% EtOH/40% PEG 400, 25° C., read-out: Solubility): 1.23 mg/mL (≈ 4.21 mM)
- solubility ([1]; purified water containing mixtures of solubilizers, aqueous with cosolvent or surfactant or cyclodextrin, 10% EtOH/10% Polysorbate 80, 25° C., read-out: Solubility): 2.3 mg/mL (≈ 7.88 mM)
- solubility ([1]; purified water containing mixtures of solubilizers, aqueous with cosolvent or surfactant or cyclodextrin, 10% EtOH/40% PEG 400, 25° C., read-out: Solubility): 3.42 mg/mL (≈ 11.7 mM)
- solubility ([1]; purified water containing mixtures of solubilizers, aqueous with cosolvent or surfactant or cyclodextrin, 10% EtOH/40% PEG 400,/5% Benzyl Alcohol, 25° C., read-out: Solubility): 3.11 mg/mL (≈ 10.7 mM)
- solubility ([1]; purified water containing mixtures of solubilizers, aqueous with cosolvent or surfactant or cyclodextrin, 10% glycofurol, 40% PEG 400, 25° C., read-out: Solubility): 6.12 mg/mL (≈ 21 mM)
- solubility ([1]; purified water, water, Purified Water, 25° C., read-out: Solubility): 0.182 mg/mL (≈ 0.623 mM)
- solubility ([1]; water without solubilizer, water, water, no solubilizer, summary of Table 1, read-out: Solubility in water without any solubilizer): ≤ 0.2 mg/mL
- solubility ([2]; 35% v/v DMA in Capmul PG-8, 25 °C, oil or lipid, 35% v/v DMA in Capmul PG-8, read from the graph of FIG. 2, read-out: Saturated solubility): ~220 mg/mL (≈ 753 mM)
- solubility ([2]; solvent (liquid filled capsule vehicle), 25 °C, oil or lipid, 10% v/v DMA in Capmul, 25° C., read-out: BA Solubility): 57 mg/mL (≈ 195 mM)
- solubility ([2]; solvent (liquid filled capsule vehicle), 25 °C, oil or lipid, 20% v/v DMA in Capmul, 25° C., read-out: BA Solubility): 89 mg/mL (≈ 305 mM)
- solubility ([2]; solvent (liquid filled capsule vehicle), 25 °C, oil or lipid, 30% v/v DMA in Capmul, 25° C., read-out: BA Solubility): 176 mg/mL (≈ 603 mM)
- solubility ([2]; solvent (liquid filled capsule vehicle), 25 °C, oil or lipid, 40% DMA in Capmul, 25° C., read-out: BA Solubility): 276 mg/mL (≈ 945 mM)
- solubility ([2]; solvent (liquid filled capsule vehicle), 25 °C, oil or lipid, 40% v/v Transcutol in Capmul, 25° C., read-out: BA Solubility): 73 mg/mL (≈ 250 mM)
- solubility ([2]; solvent (liquid filled capsule vehicle), 25 °C, oil or lipid, 100% Capmul, 25° C., read-out: BA Solubility): 32 mg/mL (≈ 110 mM)
- solubility ([2]; solvent (liquid filled capsule vehicle), 25 °C, oil or lipid, 100% Labrafil, 25° C., read-out: BA Solubility): 18 mg/mL (≈ 61.6 mM)
- solubility ([2]; solvent (liquid filled capsule vehicle), 25 °C, organic solvent or mixture, 20% v/v glycerol, 3% v/v water in PEG 400, 25° C., read-out: BA Solubility): 192 mg/mL (≈ 657 mM)
- solubility ([2]; solvent (liquid filled capsule vehicle), 25 °C, organic solvent or mixture, 25% w/v Solutol in PEG 400, 25° C., read-out: BA Solubility): 224 mg/mL (≈ 767 mM)
- solubility ([2]; solvent (liquid filled capsule vehicle), 25 °C, organic solvent or mixture, 25% w/v Vit E TPGS in PEG 400, 25° C., read-out: BA Solubility): 204 mg/mL (≈ 699 mM)
- solubility ([2]; solvent (liquid filled capsule vehicle), 25 °C, organic solvent or mixture, 100% NMP, 25° C., read-out: BA Solubility): 319 mg/mL (≈ 1090 mM)
- solubility ([2]; solvent (liquid filled capsule vehicle), 25 °C, organic solvent or mixture, 100% PEG 400, 25° C., read-out: BA Solubility): 186 mg/mL (≈ 637 mM)
- solubility ([2]; solvent (liquid filled capsule vehicle), 25 °C, organic solvent or mixture, 100% Transcutol, 25° C., read-out: BA Solubility): 192 mg/mL (≈ 657 mM)
